# Reference: ChEMBL document CHEMBL5143672, “New diarylpentanoids and chalcones as potential antimicrobial adjuvants” (2022)
# System: not listed separately
# Test: Inhibition of Multidrug resistance efflux pump in Staphylococcus aureus 272123 assessed as relative fluorescence index using ethidium bromide as substrate at 50 uM by fluorescence based analysis
# Settings: not given
row,Structure (SMILES),RFU
1,O=C1/C(=C/c2ccccc2Br)COC/C1=C\c1ccccc1Br,-0.05
2,O=C1/C(=C/c2ccc(F)cc2)COC/C1=C\c1ccc(F)cc1,-0.11
3,COc1ccccc1/C=C1\CC/C(=C\c2ccccc2OC)C1=O,-0.39
4,O=C1/C(=C/c2ccccc2F)COC/C1=C\c1ccccc1F,-0.08
5,COc1ccccc1/C=C1\COC/C(=C\c2ccccc2OC)C1=O,0.21
6,COc1cccc(/C=C2\COC/C(=C\c3cccc(OC)c3)C2=O)c1,0.17
7,O=C1/C(=C/c2ccc(C(F)(F)F)cc2)COC/C1=C\c1ccc(C(F)(F)F)cc1,-0.12
8,COc1ccccc1/C=C1\Cc2ccccc2C1=O,0.05
9,COc1ccccc1/C=C1\CSC/C(=C\c2ccccc2OC)C1=O,0.01

# System: Enterococcus faecalis
# Test: Antibacterial activity against Enterococcus faecalis ATCC 29212 assessed as inhibition of bacterial growth by broth microdilution method
# Format: functional
# Settings: not given
row,Structure (SMILES),MIC
1,O=C1/C(=C/c2ccccc2Br)COC/C1=C\c1ccccc1Br,> 64 µg/mL
2,O=C1/C(=C/c2ccc(F)cc2)COC/C1=C\c1ccc(F)cc1,> 64 µg/mL
3,COc1ccccc1/C=C1\CC/C(=C\c2ccccc2OC)C1=O,> 64 µg/mL
4,O=C1/C(=C/c2ccccc2F)COC/C1=C\c1ccccc1F,> 64 µg/mL
5,COc1ccccc1/C=C1\COC/C(=C\c2ccccc2OC)C1=O,> 64 µg/mL
6,COc1cccc(/C=C2\COC/C(=C\c3cccc(OC)c3)C2=O)c1,> 64 µg/mL
7,O=C1/C(=C/c2ccc(C(F)(F)F)cc2)COC/C1=C\c1ccc(C(F)(F)F)cc1,> 64 µg/mL
8,COc1ccccc1/C=C1\Cc2ccccc2C1=O,> 64 µg/mL
9,COc1ccccc1/C=C1\CSC/C(=C\c2ccccc2OC)C1=O,> 64 µg/mL

# System: Aspergillus fumigatus
# Test: Antifungal activity against Aspergillus fumigatus ATCC 204305 assessed as inhibition of fungal growth by broth microdilution method
# Format: functional
# Settings: not given
row,Structure (SMILES),MIC
1,O=C1/C(=C/c2ccccc2Br)COC/C1=C\c1ccccc1Br,> 128 µg/mL
2,O=C1/C(=C/c2ccc(F)cc2)COC/C1=C\c1ccc(F)cc1,> 128 µg/mL
3,COc1ccccc1/C=C1\CC/C(=C\c2ccccc2OC)C1=O,> 128 µg/mL
4,O=C1/C(=C/c2ccccc2F)COC/C1=C\c1ccccc1F,> 128 µg/mL
5,COc1ccccc1/C=C1\COC/C(=C\c2ccccc2OC)C1=O,> 128 µg/mL
6,COc1cccc(/C=C2\COC/C(=C\c3cccc(OC)c3)C2=O)c1,> 128 µg/mL
7,O=C1/C(=C/c2ccc(C(F)(F)F)cc2)COC/C1=C\c1ccc(C(F)(F)F)cc1,> 128 µg/mL
8,COc1ccccc1/C=C1\Cc2ccccc2C1=O,> 128 µg/mL
9,COc1ccccc1/C=C1\CSC/C(=C\c2ccccc2OC)C1=O,> 128 µg/mL

# System: Escherichia coli
# Test: Antibacterial activity against Escherichia coli ATCC 25922 assessed as inhibition of bacterial growth by broth microdilution method
# Format: functional
# Settings: not given
row,Structure (SMILES),MIC
1,O=C1/C(=C/c2ccccc2Br)COC/C1=C\c1ccccc1Br,> 64 µg/mL
2,O=C1/C(=C/c2ccc(F)cc2)COC/C1=C\c1ccc(F)cc1,> 64 µg/mL
3,COc1ccccc1/C=C1\CC/C(=C\c2ccccc2OC)C1=O,> 64 µg/mL
4,O=C1/C(=C/c2ccccc2F)COC/C1=C\c1ccccc1F,> 64 µg/mL
5,COc1ccccc1/C=C1\COC/C(=C\c2ccccc2OC)C1=O,> 64 µg/mL
6,COc1cccc(/C=C2\COC/C(=C\c3cccc(OC)c3)C2=O)c1,> 64 µg/mL
7,O=C1/C(=C/c2ccc(C(F)(F)F)cc2)COC/C1=C\c1ccc(C(F)(F)F)cc1,> 64 µg/mL
8,COc1ccccc1/C=C1\Cc2ccccc2C1=O,> 64 µg/mL
9,COc1ccccc1/C=C1\CSC/C(=C\c2ccccc2OC)C1=O,> 64 µg/mL

# System: Escherichia coli
# Test: Antimicrobial adjuvant activity against ESBL-producing Escherichia coli SA/2 assessed as potentiation of cefotaxime-induced antibacterial activity by measuring fold reduction in cefotaxime MIC at 64 ug/ml by broth microdilution method
# Format: functional
# Settings: dose 64 µg/ml
row,Structure (SMILES),fold change (FC)
1,O=C1/C(=C/c2ccc(F)cc2)COC/C1=C\c1ccc(F)cc1,8
2,O=C1/C(=C/c2ccccc2F)COC/C1=C\c1ccccc1F,2
3,COc1ccccc1/C=C1\COC/C(=C\c2ccccc2OC)C1=O,2
4,O=C1/C(=C/c2ccc(C(F)(F)F)cc2)COC/C1=C\c1ccc(C(F)(F)F)cc1,2

# System: Enterococcus faecalis
# Test: Antimicrobial adjuvant activity against Enterococcus faecalis B3/101 assessed as potentiation of vancomycin-induced antibacterial activity by measuring fold reduction in vancomycin MIC at 64 ug/ml by broth microdilution method
# Format: functional
# Settings: dose 64 µg/ml
row,Structure (SMILES),fold change (FC)
1,O=C1/C(=C/c2ccccc2Br)COC/C1=C\c1ccccc1Br,2
2,COc1ccccc1/C=C1\CC/C(=C\c2ccccc2OC)C1=O,2
3,COc1cccc(/C=C2\COC/C(=C\c3cccc(OC)c3)C2=O)c1,4
4,COc1ccccc1/C=C1\Cc2ccccc2C1=O,2
5,COc1ccccc1/C=C1\CSC/C(=C\c2ccccc2OC)C1=O,4

# System: Staphylococcus aureus
# Test: Antibacterial activity against methicillin and ofloxacin-resistant Staphylococcus aureus 272123 assessed as inhibition of bacterial growth by broth microdilution method
# Format: functional
# Settings: not given
row,Structure (SMILES),MIC
1,O=C1/C(=C/c2ccccc2Br)COC/C1=C\c1ccccc1Br,> 64 µg/mL
2,O=C1/C(=C/c2ccc(F)cc2)COC/C1=C\c1ccc(F)cc1,> 64 µg/mL
3,COc1ccccc1/C=C1\CC/C(=C\c2ccccc2OC)C1=O,> 64 µg/mL
4,O=C1/C(=C/c2ccccc2F)COC/C1=C\c1ccccc1F,> 64 µg/mL
5,COc1ccccc1/C=C1\COC/C(=C\c2ccccc2OC)C1=O,> 64 µg/mL
6,COc1cccc(/C=C2\COC/C(=C\c3cccc(OC)c3)C2=O)c1,> 64 µg/mL
7,O=C1/C(=C/c2ccc(C(F)(F)F)cc2)COC/C1=C\c1ccc(C(F)(F)F)cc1,> 64 µg/mL
8,COc1ccccc1/C=C1\Cc2ccccc2C1=O,> 64 µg/mL
9,COc1ccccc1/C=C1\CSC/C(=C\c2ccccc2OC)C1=O,> 64 µg/mL

# System: Trichophyton rubrum
# Test: Antifungal activity against Trichophyton rubrum FF5 assessed as inhibition of fungal growth by broth microdilution method
# Format: functional
# Settings: not given
row,Structure (SMILES),MIC
1,O=C1/C(=C/c2ccccc2Br)COC/C1=C\c1ccccc1Br,> 128 µg/mL
2,O=C1/C(=C/c2ccc(F)cc2)COC/C1=C\c1ccc(F)cc1,> 128 µg/mL
3,COc1ccccc1/C=C1\CC/C(=C\c2ccccc2OC)C1=O,> 128 µg/mL
4,O=C1/C(=C/c2ccccc2F)COC/C1=C\c1ccccc1F,> 128 µg/mL
5,COc1ccccc1/C=C1\COC/C(=C\c2ccccc2OC)C1=O,> 128 µg/mL
6,COc1cccc(/C=C2\COC/C(=C\c3cccc(OC)c3)C2=O)c1,> 128 µg/mL
7,O=C1/C(=C/c2ccc(C(F)(F)F)cc2)COC/C1=C\c1ccc(C(F)(F)F)cc1,> 128 µg/mL
8,COc1ccccc1/C=C1\Cc2ccccc2C1=O,> 128 µg/mL
9,COc1ccccc1/C=C1\CSC/C(=C\c2ccccc2OC)C1=O,> 128 µg/mL

# System: Salmonella enterica subsp. enterica serovar Typhimurium
# Test: Inhibition of Multidrug resistance efflux pump in Salmonella enterica serovar typhimurium SL1344 (SE03) assessed as relative fluorescence index using ethidium bromide as substrate at 50 uM by fluorescence based analysis
# Settings: not given
row,Structure (SMILES),RFU
1,O=C1/C(=C/c2ccccc2Br)COC/C1=C\c1ccccc1Br,-0.02
2,O=C1/C(=C/c2ccc(F)cc2)COC/C1=C\c1ccc(F)cc1,0.17
3,COc1ccccc1/C=C1\CC/C(=C\c2ccccc2OC)C1=O,0.15
4,O=C1/C(=C/c2ccccc2F)COC/C1=C\c1ccccc1F,-0.04
5,COc1ccccc1/C=C1\COC/C(=C\c2ccccc2OC)C1=O,0.16
6,COc1cccc(/C=C2\COC/C(=C\c3cccc(OC)c3)C2=O)c1,0.05
7,O=C1/C(=C/c2ccc(C(F)(F)F)cc2)COC/C1=C\c1ccc(C(F)(F)F)cc1,-0.24
8,COc1ccccc1/C=C1\Cc2ccccc2C1=O,0.25
9,COc1ccccc1/C=C1\CSC/C(=C\c2ccccc2OC)C1=O,0.01

# System: Pseudomonas aeruginosa
# Test: Antibacterial activity against Pseudomonas aeruginosa ATCC 27853 assessed as inhibition of bacterial growth by broth microdilution method
# Format: functional
# Settings: not given
row,Structure (SMILES),MIC
1,O=C1/C(=C/c2ccccc2Br)COC/C1=C\c1ccccc1Br,> 64 µg/mL
2,O=C1/C(=C/c2ccc(F)cc2)COC/C1=C\c1ccc(F)cc1,> 64 µg/mL
3,COc1ccccc1/C=C1\CC/C(=C\c2ccccc2OC)C1=O,> 64 µg/mL
4,O=C1/C(=C/c2ccccc2F)COC/C1=C\c1ccccc1F,> 64 µg/mL
5,COc1ccccc1/C=C1\COC/C(=C\c2ccccc2OC)C1=O,> 64 µg/mL
6,COc1cccc(/C=C2\COC/C(=C\c3cccc(OC)c3)C2=O)c1,> 64 µg/mL
7,O=C1/C(=C/c2ccc(C(F)(F)F)cc2)COC/C1=C\c1ccc(C(F)(F)F)cc1,> 64 µg/mL
8,COc1ccccc1/C=C1\Cc2ccccc2C1=O,> 64 µg/mL
9,COc1ccccc1/C=C1\CSC/C(=C\c2ccccc2OC)C1=O,> 64 µg/mL

# System: Candida albicans
# Test: Antifungal activity against Candidia albicans ATCC 10231 assessed as inhibition of fungal growth by broth microdilution method
# Format: functional
# Settings: not given
row,Structure (SMILES),MIC
1,O=C1/C(=C/c2ccccc2Br)COC/C1=C\c1ccccc1Br,> 128 µg/mL
2,O=C1/C(=C/c2ccc(F)cc2)COC/C1=C\c1ccc(F)cc1,> 128 µg/mL
3,COc1ccccc1/C=C1\CC/C(=C\c2ccccc2OC)C1=O,> 128 µg/mL
4,O=C1/C(=C/c2ccccc2F)COC/C1=C\c1ccccc1F,> 128 µg/mL
5,COc1ccccc1/C=C1\COC/C(=C\c2ccccc2OC)C1=O,> 128 µg/mL
6,COc1cccc(/C=C2\COC/C(=C\c3cccc(OC)c3)C2=O)c1,> 128 µg/mL
7,O=C1/C(=C/c2ccc(C(F)(F)F)cc2)COC/C1=C\c1ccc(C(F)(F)F)cc1,> 128 µg/mL
8,COc1ccccc1/C=C1\Cc2ccccc2C1=O,> 128 µg/mL
9,COc1ccccc1/C=C1\CSC/C(=C\c2ccccc2OC)C1=O,> 128 µg/mL

# System: Staphylococcus aureus
# Test: Antibacterial activity against Staphylococcus aureus ATCC 25923 assessed as inhibition of bacterial growth by broth microdilution method
# Format: functional
# Settings: not given
row,Structure (SMILES),MIC
1,O=C1/C(=C/c2ccccc2Br)COC/C1=C\c1ccccc1Br,> 64 µg/mL
2,O=C1/C(=C/c2ccc(F)cc2)COC/C1=C\c1ccc(F)cc1,> 64 µg/mL
3,COc1ccccc1/C=C1\CC/C(=C\c2ccccc2OC)C1=O,> 64 µg/mL
4,O=C1/C(=C/c2ccccc2F)COC/C1=C\c1ccccc1F,> 64 µg/mL
5,COc1ccccc1/C=C1\COC/C(=C\c2ccccc2OC)C1=O,> 64 µg/mL
6,COc1cccc(/C=C2\COC/C(=C\c3cccc(OC)c3)C2=O)c1,> 64 µg/mL
7,O=C1/C(=C/c2ccc(C(F)(F)F)cc2)COC/C1=C\c1ccc(C(F)(F)F)cc1,> 64 µg/mL
8,COc1ccccc1/C=C1\Cc2ccccc2C1=O,> 64 µg/mL
9,COc1ccccc1/C=C1\CSC/C(=C\c2ccccc2OC)C1=O,> 64 µg/mL

# System: Salmonella typhimurium
# Test: Antibacterial activity against Salmonella enterica serovar typhimurium SL1344 (SE03) assessed as inhibition of bacterial growth by broth microdilution method
# Format: functional, Salmonella enterica subsp. enterica serovar Typhimurium
# Settings: not given
row,Structure (SMILES),MIC
1,O=C1/C(=C/c2ccccc2Br)COC/C1=C\c1ccccc1Br,> 64 µg/mL
2,O=C1/C(=C/c2ccc(F)cc2)COC/C1=C\c1ccc(F)cc1,> 64 µg/mL
3,COc1ccccc1/C=C1\CC/C(=C\c2ccccc2OC)C1=O,> 64 µg/mL
4,O=C1/C(=C/c2ccccc2F)COC/C1=C\c1ccccc1F,> 64 µg/mL
5,COc1ccccc1/C=C1\COC/C(=C\c2ccccc2OC)C1=O,> 64 µg/mL
6,COc1cccc(/C=C2\COC/C(=C\c3cccc(OC)c3)C2=O)c1,> 64 µg/mL
7,O=C1/C(=C/c2ccc(C(F)(F)F)cc2)COC/C1=C\c1ccc(C(F)(F)F)cc1,> 64 µg/mL
8,COc1ccccc1/C=C1\Cc2ccccc2C1=O,> 64 µg/mL
9,COc1ccccc1/C=C1\CSC/C(=C\c2ccccc2OC)C1=O,> 64 µg/mL
